{
  "source": "patent US10532066B2",
  "about": "“Surfactant lipids, compositions thereof, and uses thereof” (National Jewish Health, priority 2007, dated 2020)",
  "key": {"multiple TLRs [1]": {"tested_on": "multiple TLRs", "assay": "Activation of RAW 264.7 macrophages by multiple TLRs (TNFα, Example 8)", "assay_type": "cell-based", "details": "200 ug/ml POPG, 5 hours"}, "TLR2": {"biological_target": "TLR2 (Homo sapiens, UniProt O60603)", "sequence (O60603 21-784)": "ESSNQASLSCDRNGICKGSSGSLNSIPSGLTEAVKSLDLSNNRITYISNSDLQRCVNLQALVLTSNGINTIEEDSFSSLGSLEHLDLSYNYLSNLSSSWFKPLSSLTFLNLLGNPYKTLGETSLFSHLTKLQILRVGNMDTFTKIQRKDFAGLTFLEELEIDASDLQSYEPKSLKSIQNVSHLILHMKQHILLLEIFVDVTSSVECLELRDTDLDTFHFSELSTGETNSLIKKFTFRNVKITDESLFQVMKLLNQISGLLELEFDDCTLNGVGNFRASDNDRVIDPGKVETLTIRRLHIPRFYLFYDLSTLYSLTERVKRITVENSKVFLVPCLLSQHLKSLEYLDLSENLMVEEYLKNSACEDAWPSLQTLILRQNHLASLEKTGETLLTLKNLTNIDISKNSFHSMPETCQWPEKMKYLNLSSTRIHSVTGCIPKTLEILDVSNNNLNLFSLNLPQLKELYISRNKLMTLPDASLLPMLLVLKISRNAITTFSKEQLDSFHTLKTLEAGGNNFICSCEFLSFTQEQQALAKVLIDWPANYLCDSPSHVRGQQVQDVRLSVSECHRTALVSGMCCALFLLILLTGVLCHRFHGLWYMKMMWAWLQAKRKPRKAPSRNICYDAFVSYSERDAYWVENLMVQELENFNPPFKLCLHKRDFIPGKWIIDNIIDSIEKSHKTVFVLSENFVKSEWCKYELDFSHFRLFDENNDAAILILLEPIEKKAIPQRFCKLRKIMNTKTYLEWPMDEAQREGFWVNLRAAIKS", "assay": "TLR agonist IL-8 production in primary human neutrophils, TLR2", "assay_type": "cell-based", "design": "endogenous in cells; host or cells: primary human neutrophils", "details": "Pam3Cys, 5-24 h", "protocol": "(§1) In this experiment, multiple TLRs were stimulated with defined TLR agonists for 5-24 h as indicated, and the IL-8 production was measured. In each case the maximal stimulation by agonist is set at 100% and the antagonism by POPG is expressed as the relative % response. The Controls consist of no treatment, or treatment with POPG, in the absence of agonist as indicated. The agonists for the TLRs consist of Pam3Cys for TLR1/2, double stranded RNA (poly IC) for TLR3, Gram-negative lipopolysaccharide (LPS) for TLR4, and single stranded RNA (polyU) for TLR7/8."}, "multiple TLRs [2]": {"tested_on": "multiple TLRs", "assay": "Activation of primary bronchial epithelial cells by multiple TLRs (IL-8, Example 9)", "assay_type": "cell-based, human", "details": "200 ug/ml POPG, 24 h", "protocol": "Monolayers of normal human bronchial epithelial cells were stimulated with the TLR3 agonist, polyI:C (0.1 ug/ml); the TLR5 agonist, flagellin (10 ng/ml) and the TLR7/8 agonist polyU (100 ug/ml) for 24 h in either the absence or presence of 200 ug/ml POPG, or POPC as indicated. Cultures were also treated with POPG or POPC alone, as additional controls. After 24 h the medium was harvested and centrifuged to remove non-adherent cells, and processed to detect IL-8 production by ELISA. Values shown in FIG. 33 are averages±SE for 3 independent experiments."}, "TLR4": {"biological_target": "T1, TLR4 (Homo sapiens, UniProt O00206)", "T1 construct": "multiple Toll-like receptors (TLRs) on primary human neutrophils; endogenous in cells; host or cells: primary human neutrophils", "T1 sequence (O00206 24-839)": "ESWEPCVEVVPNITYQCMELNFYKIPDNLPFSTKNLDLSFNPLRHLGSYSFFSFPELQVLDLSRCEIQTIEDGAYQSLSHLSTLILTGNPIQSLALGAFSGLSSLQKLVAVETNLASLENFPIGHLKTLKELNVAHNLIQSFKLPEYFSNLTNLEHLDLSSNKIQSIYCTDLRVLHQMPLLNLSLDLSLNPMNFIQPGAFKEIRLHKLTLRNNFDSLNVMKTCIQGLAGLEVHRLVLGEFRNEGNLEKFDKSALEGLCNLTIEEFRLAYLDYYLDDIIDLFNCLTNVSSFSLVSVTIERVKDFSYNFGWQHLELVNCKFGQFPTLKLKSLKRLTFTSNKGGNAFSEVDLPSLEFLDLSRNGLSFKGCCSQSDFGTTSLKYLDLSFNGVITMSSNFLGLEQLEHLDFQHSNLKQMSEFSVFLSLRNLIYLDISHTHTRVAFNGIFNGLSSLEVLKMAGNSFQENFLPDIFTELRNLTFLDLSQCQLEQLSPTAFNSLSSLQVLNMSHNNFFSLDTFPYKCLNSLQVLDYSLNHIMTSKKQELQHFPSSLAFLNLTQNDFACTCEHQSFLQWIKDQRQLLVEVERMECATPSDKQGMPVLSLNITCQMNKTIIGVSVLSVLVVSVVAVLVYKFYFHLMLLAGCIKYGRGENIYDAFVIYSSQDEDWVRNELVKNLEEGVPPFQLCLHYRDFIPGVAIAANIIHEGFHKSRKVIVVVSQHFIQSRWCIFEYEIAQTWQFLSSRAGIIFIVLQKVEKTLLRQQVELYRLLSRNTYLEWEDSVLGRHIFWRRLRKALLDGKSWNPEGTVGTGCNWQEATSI", "T1 sequence (Q9Y6Y9 19-160 partner)": "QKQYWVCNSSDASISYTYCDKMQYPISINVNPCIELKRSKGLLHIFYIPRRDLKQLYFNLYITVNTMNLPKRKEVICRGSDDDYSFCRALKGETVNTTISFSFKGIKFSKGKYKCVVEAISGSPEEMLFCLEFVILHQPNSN", "assay": "TLR agonist IL-8 production in primary human neutrophils, TLR4", "assay_type": "cell-based", "details": "LPS, 5-24 h", "protocol": "as §1"}, "TLR1": {"biological_target": "T2, TLR1 (Homo sapiens, UniProt Q15399)", "T2 sequence (Q15399 25-786)": "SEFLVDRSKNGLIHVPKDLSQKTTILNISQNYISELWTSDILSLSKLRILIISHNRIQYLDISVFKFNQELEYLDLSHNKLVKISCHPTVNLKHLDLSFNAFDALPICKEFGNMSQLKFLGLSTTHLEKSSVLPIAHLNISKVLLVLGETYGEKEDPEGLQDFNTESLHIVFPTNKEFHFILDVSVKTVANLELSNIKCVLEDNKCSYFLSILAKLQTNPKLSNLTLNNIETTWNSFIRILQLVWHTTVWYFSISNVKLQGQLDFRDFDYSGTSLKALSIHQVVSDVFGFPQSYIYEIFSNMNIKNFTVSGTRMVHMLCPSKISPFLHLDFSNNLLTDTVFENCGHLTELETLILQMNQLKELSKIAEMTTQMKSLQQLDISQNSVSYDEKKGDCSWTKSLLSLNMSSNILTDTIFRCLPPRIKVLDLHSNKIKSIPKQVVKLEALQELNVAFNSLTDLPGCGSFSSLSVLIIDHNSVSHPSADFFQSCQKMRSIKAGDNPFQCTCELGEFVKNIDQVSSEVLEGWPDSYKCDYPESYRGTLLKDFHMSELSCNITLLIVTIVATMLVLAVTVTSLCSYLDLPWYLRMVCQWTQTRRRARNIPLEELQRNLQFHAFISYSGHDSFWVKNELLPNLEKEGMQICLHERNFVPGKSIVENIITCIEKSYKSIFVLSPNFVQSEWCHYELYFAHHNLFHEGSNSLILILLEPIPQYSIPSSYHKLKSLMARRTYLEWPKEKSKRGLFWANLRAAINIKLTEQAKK", "assay": "TLR agonist IL-8 production in primary human neutrophils, TLR1", "assay_type": "cell-based", "design": "endogenous in cells; host or cells: primary human neutrophils", "details": "Pam3Cys, 5-24 h", "protocol": "as §1"}, "[3]": {"tested_on": "Respiratory Syncytial Virus (RSV)", "assay": "RSV replication in BEAS2B cells (anti-RSV antibody staining)", "assay_type": "cell-based", "details": "multiplicity 3, 72 h, POPG 200 ug/ml", "protocol": "Monolayers of BEAS2B and NHBE cells were infected with RSV at a multiplicity of 3 for 72 h. Infections were performed on cells in either the absence or the presence of POPG (200 ug/ml). The cell monolayers were fixed and stained with goat anti-human RSV antibody conjugated with horseradish peroxidase. The presence of the antibody was detected with diaminobenzamidine. Controls consisted of cell layers not exposed to the virus or exposed to POPG in the absence of virus as indicated."}, "MD-2 binding to sTLR4": {"biological_target": "T3, MD-2 binding to sTLR4 (Homo sapiens, UniProt Q9Y6Y9)", "T3 construct": "made in house; host or cells: baculovirus-insect cell expression system", "T3 sequence (Q9Y6Y9 19-160)": "as the sequence (Q9Y6Y9 19-160 partner) above", "assay": "Phospholipid competition for MD-2-sTLR4 binding", "protocol": "CD14 (2 μg) or sTLR4 (100 ng) in aliquots of 20 μl of buffer B were pipeted onto a 96-well plate, and the solvent evaporated using a warm air dryer. […] The amount of bound LBP or MD-2 was detected using specific antibodies."}, "TLR3": {"biological_target": "T4, TLR3 (Mus musculus, UniProt Q99MB1)", "T4 construct": "endogenous in cells; host or cells: RAW 264.7", "T4 sequence (Q99MB1 26-905)": "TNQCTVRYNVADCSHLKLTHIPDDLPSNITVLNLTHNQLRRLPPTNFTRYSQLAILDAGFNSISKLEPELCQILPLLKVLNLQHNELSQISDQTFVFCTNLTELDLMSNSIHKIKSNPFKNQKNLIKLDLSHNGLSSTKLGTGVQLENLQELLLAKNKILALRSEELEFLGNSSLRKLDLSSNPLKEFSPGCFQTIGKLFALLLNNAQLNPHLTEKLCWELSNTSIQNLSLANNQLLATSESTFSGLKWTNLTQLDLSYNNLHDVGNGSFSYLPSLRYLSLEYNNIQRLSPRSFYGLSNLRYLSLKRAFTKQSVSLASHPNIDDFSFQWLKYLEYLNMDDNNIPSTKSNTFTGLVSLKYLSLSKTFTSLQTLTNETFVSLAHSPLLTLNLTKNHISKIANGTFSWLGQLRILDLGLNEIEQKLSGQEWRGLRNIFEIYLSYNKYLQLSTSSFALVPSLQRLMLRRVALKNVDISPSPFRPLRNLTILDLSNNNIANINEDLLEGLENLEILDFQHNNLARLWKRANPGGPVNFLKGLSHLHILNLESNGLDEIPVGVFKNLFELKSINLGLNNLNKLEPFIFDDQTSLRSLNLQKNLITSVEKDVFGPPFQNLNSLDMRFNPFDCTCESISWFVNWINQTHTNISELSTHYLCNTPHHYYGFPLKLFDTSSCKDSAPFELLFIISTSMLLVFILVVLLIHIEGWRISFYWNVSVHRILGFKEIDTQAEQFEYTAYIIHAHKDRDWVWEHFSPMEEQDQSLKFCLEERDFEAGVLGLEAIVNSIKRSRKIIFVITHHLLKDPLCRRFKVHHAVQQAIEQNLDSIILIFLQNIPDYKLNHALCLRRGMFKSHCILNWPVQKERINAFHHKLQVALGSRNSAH", "assay": "TLR agonist TNFα production in RAW 264.7 cells, TLR3", "assay_type": "cell-based", "details": "poly IC, 24 h", "protocol": "In this experiment, multiple TLRs were stimulated with defined TLR agonists for 24 h and the TNFα production was measured. In each case, the maximal stimulation by agonist is set at 100% and the antagonism by POPG is expressed as the relative % response. The Controls consist of no treatment, or treatment with POPG in the absence of agonist as indicated. The agonists for the TLRs consist of Pam3Cys for TLR1/2, Mycoplasma pneumoniae membranes as an agonist for TLR2, mycoplasma derived MALP2 as an agonist for TLR 2/6, double stranded RNA (poly IC) for TLR3, Gram-negative lipopolysaccharide for TLR4, and CpG rich DNA as an agonist for TLR9. The TLR4 panel also contains the antagonist polymyxin B (PB) for comparison with POPG."}},
  "data": [
    {"smiles": "CCCCCCCC/C=C\\CCCCCCCC(=O)O[C@H](COC(=O)CCCCCCCCCCCCCCC)COP(=O)(O)OCC(O)CO", "note": "(stereo partly drawn) [POPG, palmitoyl-oleoyl-phosphatidylglycerol]", "values": [
      {"measurement": "activation of RAW 264.7 macrophages by multiple TLRs (TNFα)", "setting": "multiple TLRs [1]", "result": "inhibits activation"},
      {"measurement": "activity of TLR2 (IL-8 production)", "setting": "TLR2", "result": "inhibits"},
      {"measurement": "activation of primary bronchial epithelial cells by multiple TLRs (IL-8)", "setting": "multiple TLRs [2]", "result": "inhibits activation"},
      {"measurement": "activity of TLR4 (IL-8 production)", "setting": "TLR4", "result": "inhibits"},
      {"measurement": "activity of TLR1 (IL-8 production)", "setting": "TLR1", "result": "inhibits"},
      {"measurement": "viral replication", "setting": "[3]", "result": "prevents viral replication"},
      {"measurement": "inhibition of the MD-2/TLR4 interaction", "setting": "MD-2 binding to sTLR4; lipid competitor up to 200 μg/ml", "result": "approximately 75%"},
      {"measurement": "inhibition of the MD-2/TLR4 interaction", "setting": "MD-2 binding to sTLR4; low levels of lipid competitor (20 μg/ml)", "result": 40, "unit": "%"},
      {"measurement": "activity of TLR3 (TNFα production)", "setting": "TLR3", "result": "inhibits"}
    ]}
  ]
}
